# Data from patent publication US20260092054A1, “FUSED RING COMPOUND AND PHARMACEUTICAL CONTAINING SAME” (KAKEN PHARMACEUTICAL CO., LTD., priority 2022, published 2026).
# Molecular target: T1, human STAT6/pIL-4Rα (Homo sapiens, UniProt P42226)
# T1 construct: histidine tag
# T1 sequence (P42226 123-658): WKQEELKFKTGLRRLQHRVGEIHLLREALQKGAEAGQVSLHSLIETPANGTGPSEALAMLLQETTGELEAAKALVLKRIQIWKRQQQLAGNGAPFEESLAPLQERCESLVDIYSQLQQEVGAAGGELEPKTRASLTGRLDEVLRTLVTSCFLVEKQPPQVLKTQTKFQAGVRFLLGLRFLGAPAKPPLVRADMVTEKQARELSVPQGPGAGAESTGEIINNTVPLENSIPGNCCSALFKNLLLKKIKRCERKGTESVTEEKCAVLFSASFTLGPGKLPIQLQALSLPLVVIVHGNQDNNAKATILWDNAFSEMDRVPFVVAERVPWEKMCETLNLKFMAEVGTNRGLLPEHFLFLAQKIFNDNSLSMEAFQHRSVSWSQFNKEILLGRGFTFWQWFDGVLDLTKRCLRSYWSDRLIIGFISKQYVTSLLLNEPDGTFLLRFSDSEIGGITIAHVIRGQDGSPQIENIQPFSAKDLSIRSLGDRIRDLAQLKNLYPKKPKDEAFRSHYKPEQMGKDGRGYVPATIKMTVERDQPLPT
# Experiment: Binding inhibitory activity between human STAT6/pIL-4Rα by fluorescence polarization method
# Details: rhSTAT6 (123-658) / FAM-pIL-4Rα peptide
# Description: Test Example 1: Measurement of Binding Inhibitory Activity Between Human STAT6/pIL-p 4Rα by Fluorescence Polarization Method
# 1) Construction of Histidine Tag-Fused Recombinant Human STAT6 (123 to 658 Region)
# A histidine tag-fused recombinant human STAT6 (hereinafter referred to as rhSTAT6) expression vector [plasmid DNA in which a nucleic acid sequence containing human STAT6 (123-658 region) was inserted into a pET28a(+) vector (Novagen)] was inserted into E. coli, and the cells were cultured overnight under culturing conditions at 17° C. with IPTG treatment. After disrupting E. coli with a high-pressure homogenizer (EmulsiFlex-C3, manufactured by AVESTIN, Inc.), affinity purification using Ni-NTA agarose (manufactured by Qiagen), cation exchange chromatography using HiTrap® CM-FF (manufactured by GE healthcare), and gel filtration chromatography using Superdex® 200 10/300GL (manufactured by GE healthcare) were performed to obtain rhSTAT6.
# 2) Measurement of Binding Inhibitory Activity Between Human STAT6/pIL-4Rα by Fluorescence Polarization Method
# A DMSO solution of the example compound was diluted with an assay buffer [for example, a buffer containing 50 mmol/L NaCl, 10 mmol/L HEPES (pH 7.0), 1 mmol/L DTT, 1 mmol/L EDTA, and 0.01 vol % NP-40, and the like] to prepare a compound-added solution. The DMSO concentration in the compound addition solution was adjusted to 1 or 2 vol %. 10 μL of the compound addition solution and an assay buffer containing 1 or 2 vol % DMSO were added to each well of a 384-well plate. 5 μL of an assay buffer solution containing rhSTAT6 (rhSTAT6 concentration: for example, 1 μmol/L) or an assay buffer was added to each well of a 384-well plate. After leaving the plate at room temperature for 30 minutes in the dark, 5 μL of an assay buffer solution (FAM-pIL-4Rp concentration: for example, 80 nmol/L) containing FAM-labeled phosphorylated IL-4Rα peptide (sequence: FAM-Ala-pTyr-Lys-Pro-Phe-Gln-Asp-Leu-IIe-NH2) (hereinafter, FAM-pIL-4Rp) or an assay buffer containing 2 vol % DMSO was added to each well of the 384-well plate. The mixture was left to stand at room temperature for 30 minutes in the dark, and then centrifuged (200 g, 1 minute, room temperature). Fluorescence polarization values were measured using Infinite (registered trademark) F500 (manufactured by Tecan Japan Co., Ltd.) (Excitation: 485 nm, Emission: 535 nm). The inhibition rate of each Example compound was calculated according to the following formula using the fluorescence polarization value (A) when rhSTAT6 and FAM-pIL-4Rp were added without adding the Example compound, the fluorescence polarization value (B) when FAM-pIL-4Rp was added without adding the Example compound and rhSTAT6, and the fluorescence polarization value (C) when each Example compound, rhSTAT6, and FAM-pIL-4Rp were added.
# In the evaluation of each example compound, the 50% inhibitory concentration (IC50) of each example compound was calculated from a linear function equation of a straight line connecting two points sandwiching 50%.
row,SMILES,IC50
1,"CCn1c(-c2ccc(N3C(=O)C(C)CC3C)cc2)nc2cc(C(F)(F)F)cc(C(=O)Nc3cccc(C(N)=O)c3)c21 (single isomer, unassigned) [Ex. 13]",9090 nM
2,"CCn1c(-c2ccc(N3C(=O)C(C)CC3C)cc2)nc2cc(C(F)(F)F)cc(C(=O)Nc3cccc(C(N)=O)c3F)c21 (single isomer, unassigned) [Ex. 220]",9600 nM
3,"CC1CC(C)N(c2ccc(-c3cc4ccnc(C(=O)Nc5ccc(F)c(C(N)=O)c5)c4n3CC3(C#N)CC3)cc2)C1=O (single isomer, unassigned) [Ex. 222]",3100 nM
4,"CC1CC(C)N(c2ccc(-c3cc4ccnc(C(=O)Nc5cccc(C(N)=O)c5F)c4n3CC3(C#N)CC3)cc2)C1=O (single isomer, unassigned) [Ex. 224]",1590 nM
5,CCn1c(-c2ccc3c(c2)CCN(C(C)=O)C3)nc2cc(C(F)(F)F)cc(C(=O)Nc3cccc(C(N)=O)c3)c21 [Ex. 3],2280 nM
6,CCn1c(-c2ccc(-n3ccccc3=O)cc2)nc2cc(C(F)(F)F)cc(C(=O)Nc3cccc(C(N)=O)c3C)c21 [Ex. 10],3260 nM
7,COCCn1c(-c2ccc(-n3c(C)nn(C)c3=O)cc2)cc2cc(C(F)(F)F)cc(C(=O)Nc3ccc(F)cc3)c21 [Ex. 53],3970 nM
8,COCCn1c(-c2ccc(-n3c(C)nn(C)c3=O)cc2)cc2cc(C(F)(F)F)cc(C(=O)Nc3ccncc3)c21 [Ex. 54],3390 nM
9,Cc1nn(C)c(=O)n1-c1ccc(-c2cc3cc(C(F)(F)F)cc(C(=O)Nc4ccc(F)c(C(N)=O)c4)c3n2C)cc1 [Ex. 55],2570 nM
10,COCCn1c(-c2ccc(-n3c(C)nn(C)c3=O)cc2)cc2cc(C(F)(F)F)cc(C(=O)Nc3cccc(S(N)(=O)=O)c3)c21 [Ex. 63],2530 nM
11,CCn1c(-c2ccc(-n3cnn(C)c3=O)cn2)cc2cc(C(F)(F)F)cc(C(=O)Nc3ccc(F)c(C(N)=O)c3)c21 [Ex. 64],2620 nM
12,CCn1c(-c2ccc(N3CCCCC3=O)cc2)cc2cc(C(F)(F)F)cc(C(=O)Nc3ccc(F)c(C(N)=O)c3)c21 [Ex. 71],1180 nM
13,COCCn1c(-c2ccc(-n3c(C)nn(C)c3=O)cc2)cc2cc(C(F)(F)F)cc(C(=O)Nc3nncs3)c21 [Ex. 79],1900 nM
14,COCCn1c(-c2ccc(-n3c(C)nn(C)c3=O)cc2)cc2cc(C(F)(F)F)cc(C(=O)Nc3cc[nH]n3)c21 [Ex. 81],2270 nM
15,COCCn1c(-c2ccc(-n3c(C)nn(C)c3=O)cc2)cc2cc(C(F)(F)F)cc(C(=O)Nc3cncs3)c21 [Ex. 86],1780 nM
16,CCn1c(-c2ccc(-n3c(C)nn(C)c3=O)cc2)cc2cc(C(F)(F)F)nc(C(=O)Nc3cccc(C(N)=O)c3)c21 [Ex. 96],1890 nM
17,CCn1c(-c2ccc(-n3c(C)nn(C)c3=O)cc2)cc2cc(C(F)(F)F)cc(C(=O)Nc3ccc4c(c3)NC(=O)C4)c21 [Ex. 101],4060 nM
18,CCn1c(-c2ccc(-n3c(C)nn(C)c3=O)cc2)cc2cc(C(F)(F)F)cc(C(=O)Nc3ccc(CC(N)=O)cc3)c21 [Ex. 103],2660 nM
19,COCCn1c(-c2ccc(-n3c(C)nn(C)c3=O)cc2)cc2ccnc(C(=O)Nc3cccc(C(N)=O)c3)c21 [Ex. 106],1970 nM
20,CCn1c(-c2ccc(-n3c(C)nn(C)c3=O)cc2)cc2cc(C(F)(F)F)cc(C(=O)Nc3ccc(CNC(C)=O)cc3)c21 [Ex. 116],2070 nM

# Second part, the compound after the results:
row,IC50,SMILES
1,840 nM,COCCn1c(-c2ccc3c(c2)CCOC3C(=O)O)nc2cc(C(F)(F)F)cc(C(=O)Nc3cccc(C(N)=O)c3)c21 (stereo not drawn) [Ex. 29]
2,400 nM,COCCn1c(-c2ccc3c(c2)CCOC3C(N)=O)nc2cc(C(F)(F)F)cc(C(=O)Nc3cccc(C(N)=O)c3)c21 (stereo not drawn) [Ex. 36]
3,550 nM,CCn1c(-c2ccc(-n3c(C)nn(C)c3=O)cc2)cc2cccc(C(=O)Nc3cccc(C(N)=O)c3F)c21 [Ex. 58]
4,470 nM,CCn1c(-c2ccc(-n3c(C)nn(C)c3=O)cc2)cc2cc(F)cc(C(=O)Nc3cccc(C(N)=O)c3F)c21 [Ex. 60]
5,1140 nM,CCn1c(-c2ccc(-n3c(C)nn(C)c3=O)cc2)cc2ccnc(C(=O)Nc3cccc(C(N)=O)c3)c21 [Ex. 82]
6,1000 nM,COCCn1c(-c2ccc(-n3c(C)nn(C)c3=O)cc2)cc2cc(C(F)(F)F)cc(C(=O)Nc3cccnn3)c21 [Ex. 87]
7,940 nM,Cc1nn(C)c(=O)n1-c1ccc(-c2cc3ccnc(C(=O)Nc4cccc(C(N)=O)c4F)c3n2CC2CC2)cc1 [Ex. 89]
8,730 nM,CCn1c(-c2ccc(-n3c(C)nn(C)c3=O)cc2)cc2cc(C(F)(F)F)cc(C(=O)Nc3ccc(CC(=O)NC)cc3)c21 [Ex. 104]
9,780 nM,CCn1c(-c2ccc(-n3c(C)nn(C)c3=O)cc2)cc2cc(C(F)(F)F)cc(C(=O)Nc3cc[nH]n3)c21 [Ex. 105]

# Test system: human STAT6
# Experiment: Human STAT6 dependent reporter activity (IL-4 stimulated STAT6 reporter assay using STAT6-HEK293 cells)
# Format: cell-based
# Details: Homo sapiens, compound 0.1 μmol/L; IL-4 stimulation, luciferase activity; read-out: Inhibition rate (%)
# Description: Test Example 2: Measurement of Human STAT6 Dependent Reporter Activity
# 1) Construction of Human STAT6-HEK293 Cells
# HEK 293 cells maintenance cultured by [Penicillin-Streptomycin (Thermo Fisher Scientific) and FBS, 1 vol % and 10 vol % respectively added to DMEM high glucose (Thermo Fisher Scientific)](manufactured by ATCC) were collected, and suspended in 10 mL of 0.5% BSA/PBS. 1×10^6 cells were collected, the supernatant was removed by centrifuging, and the cells were suspended in 100 μL of Nucleofector solution V (manufactured by Lonza K.K.). 2 μg of STAT6 vector [plasmid DNAs incorporating human STAT6 sequences in pcDNA3.1 (Invitrogen)] was added, and the STAT6 vector was introduced into the HEK293 cells using the program Q-001 initially registered in the Nucleofector®2b. A cell line (STAT6-HEK293 cells) consistently expressing STAT6 was acquired by selecting resistant cells in a medium containing Geneticin® (manufactured by Thermo Fisher Scientific). 2) STAT6 reporter assay using STAT6-HEK293 cells 3×10^6 STAT6-HEK293 cells maintained in assay medium [culture medium supplemented with 1 vol % Geneticin®] were harvested and seeded in a 10 cm dish. 3 μg of a STAT6 reporter vector [plasmid in which a sequence containing a STAT6 binding sequence and a C/EBP binding sequence in tandem was incorporated into pGL4.27 (manufactured by Promega Corporation)] and 9 μL of FuGENE® HD transfection reagent (manufactured by Promega Corporation) were added to 500 μL of Opti-MEM® (manufactured by Thermo Fisher Scientific) to prepare transfection solutions. The transfection solution was vortexed and left to stand for about 5 minutes, then added dropwise to the STAT6-HEK293 cells, which were then cultured overnight in a C02 incubator to produce STAT6 reporter cells.
# The prepared STAT6 reporter cells were seeded on B&W isoplate-96 TC (PerkinElmer Japan Co., Ltd.) (3×10^4 cells/50 μL/well) and cultured overnight in a C02 incubator (37° C., 5% C02). 50 μL of assay medium was added to each well instead of the STAT6 reporter cells. The compound addition solution was prepared by diluting the DMSO solution of the example compound 250-fold using the assay medium. 20 μL of compound addition solution or 0.4 vol % DMSO-containing assay medium was added to the plate, and the plate was then cultured in a CO2 incubator for 1 hour. 10 μL of 80 ng/mL human IL-4 solution (Peprotech) or assay medium was added to each well, and the cells were cultured in a CO2 incubator for 6 hours.
# STAT6 reporter activity was measured using the Bright-Glo® Luciferase Assay System (Promega). 100 μL of Bright-Glo® reagent was added to each well, and luciferase activity was measured using Infinite® F500. The inhibition rate of each Example compound was calculated by the following formula using the luciferase activity value (G) when no Example compound was added and stimulation with IL-4 was performed, the luciferase activity value (H) when no Example compound was added and stimulation with IL-4 was not performed, and the luciferase activity value (I) when each Example compound was treated and stimulation with IL-4 was performed.
# Note that the viable cell rate under each condition was 70% or more, and it was determined that the luciferase activity inhibitory activity of each example compound was appropriately evaluated.
row,SMILES,inhibition at 0.1 µM
1,CCn1c(-c2ccc(-c3ncon3)cc2)nc2cc(Br)cc(C(=O)Nc3cccc(C(N)=O)c3)c21 [Ex. 7],1%
2,CCn1c(-c2ccc3c(c2)CCOC3C(N)=O)cc2ccnc(C(=O)Nc3ccc(F)c(C(N)=O)c3)c21 (stereo not drawn) [Ex. 28],43%

# Same assay, conditions: Homo sapiens, compound 1 μmol/L; IL-4 stimulation, luciferase activity; read-out: Inhibition rate (%)
row,SMILES,inhibition at 1 µM
1,CCn1c(-c2ccc(-c3ncon3)cc2)nc2cc(Br)cc(C(=O)Nc3cccc(C(N)=O)c3)c21 [Ex. 7],56%
2,CCn1c(-c2ccc3c(c2)CCOC3C(N)=O)cc2ccnc(C(=O)Nc3ccc(F)c(C(N)=O)c3)c21 (stereo not drawn) [Ex. 28],93%
